Measured values: ChEMBL document CHEMBL4680147, “Discovery of 6'-chloro-N-methyl-5'-(phenylsulfonamido)-[3,3'-bipyridine]-5-carboxamide (CHMFL-PI4K-127) as a novel Plasmodium falciparum PI(4)K inhibitor with potent antimalarial activity against both blood and liver stages of Plasmodium” (Eur J Med Chem, 2020)
Calls of active or inactive are those of the source. The calls are words filed in the database; no cut-off is given here.

Legend:
[1] = AUC(0 to t) in Sprague-Dawley rat at 10 mg/kg, po; format: ADME, organism-based; parameters: dose 10 mg/kg; conditions: in vivo
Plasmodium falciparum [2] = test: Antimalarial activity against artemisinin and piperaquine-phosphate resistant Plasmodium falciparum 6320 infected in human O+ erythrocytes incubated for 72 hrs by SYBR Green 1 dye based fluorescence assay; format: functional, organism-based; conditions: Plasmodium falciparum, 6320, Erythrocyte
Plasmodium berghei [3] = test: (§1) Antimalarial activity against liver stage luciferase-expressing Plasmodium berghei sporozoites infected in BALB/c mouse assessed as suppression of parasitemia at 1 mg/kg, po treated for 2 hrs followed by parasite infection and measured upto 196 hrs post-infection by luciferase based in vivo real-time imaging analysis; format: functional; conditions: time 198 hrs
[4] = AUC(0 to t) in mouse at 1 mg/kg, iv; format: ADME, organism-based; parameters: dose 1 mg/kg; conditions: in vivo
[5] = Apparent volume of distribution in Sprague-Dawley rat at 10 mg/kg, po; format: ADME, organism-based; conditions: in vivo
Plasmodium falciparum [6] = test: Antimalarial activity against artemisinin resistant Plasmodium falciparum 803 infected in human O+ erythrocytes incubated for 72 hrs by SYBR Green 1 dye based fluorescence assay; format: functional, organism-based; conditions: Plasmodium falciparum, 803, Erythrocyte
[7] = Cmax in mouse at 1 mg/kg, iv; format: ADME, organism-based; parameters: route intravenous, dose 1 mg/kg; conditions: in vivo
[8] = Tmax in mouse at 10 mg/kg, po; format: ADME, organism-based; conditions: in vivo
[9] = Mean residence time (0 to t) in mouse at 1 mg/kg, iv; format: ADME, organism-based; conditions: in vivo
[10] = Half life in mouse at 1 mg/kg, iv; format: ADME, organism-based; conditions: in vivo
[11] = Oral bioavailability in Sprague-Dawley rat at 10 mg/kg; format: ADME, organism-based; conditions: in vivo
[12] = Apparent clearance in mouse at 10 mg/kg, po; format: ADME, organism-based; conditions: in vivo, read-out: CL(app) (converted)
[13] = Oral bioavailability in mouse at 10 mg/kg; format: ADME, organism-based; conditions: in vivo
[14] = AUC(0 to infinity) in Sprague-Dawley rat at 1 mg/kg, iv; format: ADME, organism-based; parameters: time infinity, route intravenous, dose 1 mg/kg; conditions: in vivo
[15] = Apparent volume of distribution in mouse at 10 mg/kg, po; format: ADME, organism-based; conditions: in vivo
[16] = Half life in mouse at 10 mg/kg, po; format: ADME, organism-based; conditions: in vivo
[17] = AUC(0 to t) in mouse at 10 mg/kg, po; format: ADME, organism-based; parameters: dose 10 mg/kg; conditions: in vivo
Plasmodium falciparum [18] = test: Antimalarial activity against chloroquine resistant Plasmodium falciparum FAB9 infected in human O+ erythrocytes incubated for 72 hrs by SYBR Green 1 dye based fluorescence assay; format: functional, organism-based; conditions: FAB9, Erythrocyte
[19] = target: T1, Phosphatidylinositol 4,5-bisphosphate 3-kinase catalytic subunit delta isoform (Homo sapiens, UniProt O00329); test: Inhibition of human PI3Kdelta by ADP-Glo kinase assay
T1 sequence (O00329 whole entry): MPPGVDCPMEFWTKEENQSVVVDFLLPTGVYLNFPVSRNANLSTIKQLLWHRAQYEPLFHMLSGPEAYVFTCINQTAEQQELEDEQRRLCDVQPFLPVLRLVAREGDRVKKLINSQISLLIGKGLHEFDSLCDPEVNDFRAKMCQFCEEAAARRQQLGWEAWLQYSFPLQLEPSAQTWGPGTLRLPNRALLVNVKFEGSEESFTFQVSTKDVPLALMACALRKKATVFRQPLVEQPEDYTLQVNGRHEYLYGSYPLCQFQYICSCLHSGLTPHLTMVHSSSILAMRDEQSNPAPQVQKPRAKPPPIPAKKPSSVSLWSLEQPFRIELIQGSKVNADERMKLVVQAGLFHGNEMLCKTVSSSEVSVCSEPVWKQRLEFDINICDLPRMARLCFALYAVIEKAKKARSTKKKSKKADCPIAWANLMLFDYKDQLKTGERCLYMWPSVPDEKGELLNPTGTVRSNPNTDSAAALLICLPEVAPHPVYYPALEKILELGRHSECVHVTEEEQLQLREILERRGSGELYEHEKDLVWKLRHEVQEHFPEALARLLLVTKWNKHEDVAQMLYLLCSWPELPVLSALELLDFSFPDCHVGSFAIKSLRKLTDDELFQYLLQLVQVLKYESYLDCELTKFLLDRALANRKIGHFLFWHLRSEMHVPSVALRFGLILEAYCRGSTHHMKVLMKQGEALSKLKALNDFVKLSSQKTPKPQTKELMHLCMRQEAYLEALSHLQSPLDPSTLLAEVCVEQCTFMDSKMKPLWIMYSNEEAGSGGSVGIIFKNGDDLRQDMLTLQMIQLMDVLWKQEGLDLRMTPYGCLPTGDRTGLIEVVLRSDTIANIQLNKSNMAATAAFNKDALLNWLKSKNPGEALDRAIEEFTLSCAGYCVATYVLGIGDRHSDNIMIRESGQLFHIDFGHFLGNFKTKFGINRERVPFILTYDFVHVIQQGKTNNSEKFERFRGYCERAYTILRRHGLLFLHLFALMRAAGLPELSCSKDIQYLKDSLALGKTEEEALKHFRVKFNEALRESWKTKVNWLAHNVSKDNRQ

[20] = target: Phosphatidylinositol 4,5-bisphosphate 3-kinase catalytic subunit alpha isoform (Homo sapiens, UniProt P42336); test: Inhibition of human PI3Kalpha by ADP-Glo kinase assay
[21] = Tmax in Sprague-Dawley rat at 10 mg/kg, po; format: ADME, organism-based; conditions: in vivo
Plasmodium falciparum [22] = test: Antimalarial activity against Plasmodium falciparum GB4 infected in human O+ erythrocytes incubated for 72 hrs by SYBR Green 1 dye based fluorescence assay; format: functional, organism-based; conditions: GB4, Erythrocyte
[23] = AUC(0 to infinity) in mouse at 10 mg/kg, po; format: ADME, organism-based; parameters: route oral, time infinity, dose 10 mg/kg; conditions: in vivo
[24] = Selectivity index, ratio of IC50 for human VPS34 to IC50 for recombinant His-tagged Plasmodium falciparum 3D7 PI4K expressed in baculovirus infected Sf9 cells
Plasmodium berghei [25] = test: as §1, with “[…]” for “liver”, “1 to 15” for “1”, “8 days” for “196 hrs”, “based” for “based in vivo”; format: functional, organism-based; conditions: dose 1-15 mg/kg, time 194.0 hrs
[26] = AUC(0 to infinity) in Sprague-Dawley rat at 10 mg/kg, po; format: ADME, organism-based; parameters: time infinity, route oral, dose 10 mg/kg; conditions: in vivo
Plasmodium falciparum [27] = test: Antimalarial activity against pyrimethamine/chloroquine resistant Plasmodium falciparum C2A infected in human O+ erythrocytes incubated for 72 hrs by SYBR Green 1 dye based fluorescence assay; format: functional, organism-based; conditions: Erythrocyte
[28] = Mean residence time (0 to t) in Sprague-Dawley rat at 1 mg/kg, iv; format: ADME, organism-based; conditions: in vivo
Plasmodium yoelii = test: Antimalarial activity against blood stage Plasmodium yoelii infected in BALB/c mouse assessed as suppression of parasitemia at 80 mg/kg/day, po administered for 7 consecutive days starting from 1 day post-infection and observed for 20 days by Giemsa-staining based microscopic analysis; format: functional; conditions: time 20 day
[29] = target: Phosphatidylinositol 4-kinase alpha (Homo sapiens, UniProt P42356); test: Inhibition of human PI4K3alpha by ADP-Glo kinase assay
[30] = Selectivity index, ratio of IC50 for human PI3Kbeta to IC50 for recombinant His-tagged Plasmodium falciparum 3D7 PI4K expressed in baculovirus infected Sf9 cells
[31] = target: Phosphatidylinositol 3-kinase catalytic subunit type 3 (Homo sapiens, UniProt Q8NEB9); test: Inhibition of human VPS34 by ADP-Glo kinase assay
[32] = Inhibition of recombinant His-tagged Plasmodium falciparum 3D7 PI4K expressed in baculovirus infected Sf9 cells using PI:PS as substrate incubated for 1 hr in presence of ATP by ADP-Glo kinase assay

Phosphatidylinositol 3-kinase catalytic subunit type 3, sequence (Q8NEB9 whole entry): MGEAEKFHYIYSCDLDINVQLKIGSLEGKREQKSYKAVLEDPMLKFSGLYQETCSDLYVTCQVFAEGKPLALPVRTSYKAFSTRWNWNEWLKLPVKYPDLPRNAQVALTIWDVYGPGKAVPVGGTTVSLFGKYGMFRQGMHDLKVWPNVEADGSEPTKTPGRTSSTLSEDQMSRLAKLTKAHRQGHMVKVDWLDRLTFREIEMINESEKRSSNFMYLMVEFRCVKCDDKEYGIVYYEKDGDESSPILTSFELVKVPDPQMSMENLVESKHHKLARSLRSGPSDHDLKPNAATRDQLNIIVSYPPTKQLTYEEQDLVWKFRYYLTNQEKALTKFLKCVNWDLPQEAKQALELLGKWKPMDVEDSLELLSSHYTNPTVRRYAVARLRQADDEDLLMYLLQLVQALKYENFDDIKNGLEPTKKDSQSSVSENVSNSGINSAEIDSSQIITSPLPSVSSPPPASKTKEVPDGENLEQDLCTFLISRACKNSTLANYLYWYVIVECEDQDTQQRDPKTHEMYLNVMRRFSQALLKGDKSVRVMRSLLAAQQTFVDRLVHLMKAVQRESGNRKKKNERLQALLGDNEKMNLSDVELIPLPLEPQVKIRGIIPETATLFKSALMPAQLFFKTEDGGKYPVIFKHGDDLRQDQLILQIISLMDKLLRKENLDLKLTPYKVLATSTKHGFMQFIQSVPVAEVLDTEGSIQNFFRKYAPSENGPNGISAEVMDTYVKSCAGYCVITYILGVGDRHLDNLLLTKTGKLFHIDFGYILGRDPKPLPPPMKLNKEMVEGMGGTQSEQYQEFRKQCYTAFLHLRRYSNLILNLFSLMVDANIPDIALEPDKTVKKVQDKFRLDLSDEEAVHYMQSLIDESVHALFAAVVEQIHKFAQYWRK
Phosphatidylinositol 4,5-bisphosphate 3-kinase catalytic subunit alpha isoform, sequence (P42336 whole entry, canonical isoform): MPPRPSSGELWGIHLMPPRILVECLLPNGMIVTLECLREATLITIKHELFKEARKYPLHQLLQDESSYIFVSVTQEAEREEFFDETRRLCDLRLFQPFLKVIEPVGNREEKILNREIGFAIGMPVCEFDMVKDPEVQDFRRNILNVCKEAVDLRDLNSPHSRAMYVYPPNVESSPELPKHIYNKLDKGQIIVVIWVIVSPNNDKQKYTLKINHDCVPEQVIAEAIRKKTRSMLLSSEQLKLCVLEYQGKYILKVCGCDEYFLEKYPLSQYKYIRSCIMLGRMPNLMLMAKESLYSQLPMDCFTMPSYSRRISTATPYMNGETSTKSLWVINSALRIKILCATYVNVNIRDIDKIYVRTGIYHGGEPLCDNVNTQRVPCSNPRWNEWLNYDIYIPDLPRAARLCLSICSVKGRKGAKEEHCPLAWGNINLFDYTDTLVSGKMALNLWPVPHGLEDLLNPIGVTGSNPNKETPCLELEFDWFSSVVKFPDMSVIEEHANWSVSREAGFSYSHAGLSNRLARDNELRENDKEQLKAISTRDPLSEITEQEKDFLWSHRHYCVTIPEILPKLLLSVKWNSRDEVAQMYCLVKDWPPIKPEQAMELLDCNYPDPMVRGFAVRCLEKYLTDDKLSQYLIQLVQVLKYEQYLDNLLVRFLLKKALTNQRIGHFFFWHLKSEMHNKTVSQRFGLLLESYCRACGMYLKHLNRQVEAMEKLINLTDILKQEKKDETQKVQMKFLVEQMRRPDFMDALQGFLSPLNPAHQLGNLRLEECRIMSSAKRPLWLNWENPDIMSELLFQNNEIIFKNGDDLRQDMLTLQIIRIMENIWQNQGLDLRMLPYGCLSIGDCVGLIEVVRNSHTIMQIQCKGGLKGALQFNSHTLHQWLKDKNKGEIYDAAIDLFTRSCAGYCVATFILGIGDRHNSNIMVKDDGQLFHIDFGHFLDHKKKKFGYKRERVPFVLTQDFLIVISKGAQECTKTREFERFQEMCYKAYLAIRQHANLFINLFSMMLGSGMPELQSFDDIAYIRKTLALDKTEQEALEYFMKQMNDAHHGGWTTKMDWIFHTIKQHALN
Phosphatidylinositol 4-kinase alpha, sequence (P42356 whole entry): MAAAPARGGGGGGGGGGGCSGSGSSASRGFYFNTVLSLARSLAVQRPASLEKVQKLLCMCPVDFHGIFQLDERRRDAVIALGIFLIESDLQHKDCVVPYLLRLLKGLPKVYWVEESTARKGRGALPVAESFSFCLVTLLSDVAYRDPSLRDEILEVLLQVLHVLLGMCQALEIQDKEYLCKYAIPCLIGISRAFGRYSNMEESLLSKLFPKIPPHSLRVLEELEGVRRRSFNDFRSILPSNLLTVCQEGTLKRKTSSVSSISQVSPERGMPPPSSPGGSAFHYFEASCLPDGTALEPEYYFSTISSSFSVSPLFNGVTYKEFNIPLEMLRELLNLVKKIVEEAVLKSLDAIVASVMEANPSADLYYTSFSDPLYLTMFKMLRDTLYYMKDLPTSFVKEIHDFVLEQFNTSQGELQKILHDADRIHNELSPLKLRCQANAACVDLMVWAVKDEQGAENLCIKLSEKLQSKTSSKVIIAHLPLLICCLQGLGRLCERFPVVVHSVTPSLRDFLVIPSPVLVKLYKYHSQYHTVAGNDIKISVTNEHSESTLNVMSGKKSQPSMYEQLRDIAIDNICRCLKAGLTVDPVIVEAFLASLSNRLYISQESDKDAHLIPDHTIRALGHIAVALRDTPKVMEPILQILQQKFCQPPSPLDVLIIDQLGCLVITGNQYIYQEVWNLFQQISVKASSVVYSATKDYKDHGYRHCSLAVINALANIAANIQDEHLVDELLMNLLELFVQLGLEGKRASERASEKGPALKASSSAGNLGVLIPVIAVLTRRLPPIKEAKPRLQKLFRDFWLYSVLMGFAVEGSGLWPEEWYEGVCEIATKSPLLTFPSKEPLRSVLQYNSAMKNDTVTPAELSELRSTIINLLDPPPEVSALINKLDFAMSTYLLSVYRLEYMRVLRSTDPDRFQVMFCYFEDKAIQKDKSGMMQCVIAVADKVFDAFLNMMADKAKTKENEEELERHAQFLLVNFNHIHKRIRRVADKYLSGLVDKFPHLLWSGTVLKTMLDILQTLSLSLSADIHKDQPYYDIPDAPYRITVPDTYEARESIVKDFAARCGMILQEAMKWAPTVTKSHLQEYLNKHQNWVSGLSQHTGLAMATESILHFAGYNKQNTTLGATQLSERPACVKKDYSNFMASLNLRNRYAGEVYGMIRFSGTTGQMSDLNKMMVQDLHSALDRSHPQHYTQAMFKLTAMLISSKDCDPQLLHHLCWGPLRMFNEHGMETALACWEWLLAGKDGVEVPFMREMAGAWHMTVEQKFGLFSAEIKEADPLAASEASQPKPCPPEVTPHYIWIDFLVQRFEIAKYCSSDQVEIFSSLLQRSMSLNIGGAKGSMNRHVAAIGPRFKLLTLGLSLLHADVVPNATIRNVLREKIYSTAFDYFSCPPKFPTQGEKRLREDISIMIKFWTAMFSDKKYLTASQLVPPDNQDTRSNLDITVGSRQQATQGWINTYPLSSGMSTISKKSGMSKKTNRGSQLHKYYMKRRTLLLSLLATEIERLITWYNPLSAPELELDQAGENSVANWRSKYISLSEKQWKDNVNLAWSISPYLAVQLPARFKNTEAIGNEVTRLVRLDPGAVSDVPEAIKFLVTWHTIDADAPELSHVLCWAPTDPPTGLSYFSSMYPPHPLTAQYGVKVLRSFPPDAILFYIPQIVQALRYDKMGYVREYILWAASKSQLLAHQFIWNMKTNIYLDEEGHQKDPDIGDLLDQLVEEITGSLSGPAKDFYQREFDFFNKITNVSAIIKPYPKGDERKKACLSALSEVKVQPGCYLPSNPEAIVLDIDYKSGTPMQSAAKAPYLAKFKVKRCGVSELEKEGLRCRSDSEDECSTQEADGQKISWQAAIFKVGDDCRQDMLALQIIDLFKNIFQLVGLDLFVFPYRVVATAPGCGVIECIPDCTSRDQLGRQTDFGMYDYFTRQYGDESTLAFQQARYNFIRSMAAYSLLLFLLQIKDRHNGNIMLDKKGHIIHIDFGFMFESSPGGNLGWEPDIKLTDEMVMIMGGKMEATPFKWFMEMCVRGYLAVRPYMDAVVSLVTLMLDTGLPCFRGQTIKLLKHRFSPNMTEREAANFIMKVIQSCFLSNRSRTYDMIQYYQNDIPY

Compound: CNC(=O)c1cncc(-c2cnc(Cl)c(NS(=O)(=O)c3ccccc3)c2)c1
- AUC(0-t) [1]: 19300 ng·h/mL
- EC50 (Plasmodium falciparum [2]): 24.7 nM
- Activity (Plasmodium berghei [3]): 100%
- AUC(0-t) [4]: 327 ng·h/mL
- Vz [5]: 2.2 L/kg
- EC50 (Plasmodium falciparum [6]): 30.9 nM
- Cmax [7]: 718 ng/mL
- Tmax [8]: 0.19 h
- MRT last [9]: 3.1 h
- half-life [10]: 2.7 h
- bioavailability [11]: 89%
- CL/F [12]: 65 mL/min/kg
- bioavailability [13]: 80%
- AUC(0-inf) [14]: 2170 ng·h/mL
- Vz [15]: 20.2 L/kg
- half-life [16]: 3.6 h
- AUC(0-t) [17]: 2630 ng·h/mL
- EC50 (Plasmodium falciparum [18]): 23.6 nM
- IC50 [19]: 104 nM
- IC50 [20]: 191 nM
- Tmax [21]: 0.83 h
- EC50 (Plasmodium falciparum [22]): 47.8 nM
- AUC(0-inf) [23]: 2380 ng·h/mL
- Ratio IC50 [24]: 400
- Activity (Plasmodium berghei [25]): Active
- AUC(0-inf) [26]: 19300 ng·h/mL
- EC50 (Plasmodium falciparum [27]): 28 nM
- MRT last [28]: 1 h
- Activity (Plasmodium yoelii): 100%
- IC50 [29]: 165 nM
- Ratio IC50 [30]: 400
- IC50 [31]: 681 nM
- IC50 [32]: 0.9 nM
